The values that follow come from ChEMBL document CHEMBL1201862, “PubChem BioAssay data set” (2004).

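Dose response: 5 concentrations. Exposure: 48 h. Format: 96-well plates. Endpoint: linear interpolation; highest concentration if not reached. GI50 is the concentration that inhibits growth by half.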 Calls of active or inactive are those of the source. No stated cut-off is given here; in the data, active = GI50 up to about 1.1 µM and inactive = higher. Bounds are passed on as bounds.

Test systems include Malme-3M; PC-3; HL-60; NCI-H522; 786-0; RPMI-8226; HCT-15; MOLT-4; MDA-MB-231; SK-MEL-28; SNB-19; Hs-578T; NCI-H23; NCI-H460; DU-145; EKVX; SR; HOP-92; LOX IMVI; OVCAR-8.
What all share (assay): NCI tumour cell line growth inhibition, 48 h

As to `O=C(CC1(O)C(=O)Nc2c(Cl)ccc(Cl)c21)c1ccco1` (centres undefined), the GI50 with Malme-3M was 20 µM (inactive); in the assay on PC-3, 28.2 µM (inactive); with HL-60, 14.7 µM (inactive); with NCI-H522 it was 44.3 µM (inactive); with 786-0 it was 15.5 µM (inactive); in the assay on RPMI-8226, 16.8 µM (inactive). Moreover, the GI50 in the assay on HCT-15 is 25.2 µM; in the assay with MOLT-4, 24.9 µM (inactive); in the assay with MDA-MB-231 it was 25.5 µM (inactive); with SK-MEL-28, 19.5 µM (inactive); in the assay with SNB-19, 42.3 µM (inactive); with Hs-578T, 26 µM (inactive). In addition, the GI50 in the assay on NCI-H23 was 15.2 µM (inactive); with NCI-H460, 20.4 µM (inactive); with DU-145, 40.3 µM (inactive); in the assay on EKVX, 22.6 µM (inactive); with SR it was 4.38 µM (inactive); in the assay on HOP-92, 22.3 µM (inactive). Also, the results for the GI50 with LOX IMVI and in the assay with OVCAR-8 were 10.9 µM (inactive) and 27.2 µM (inactive), respectively.
As to `N=C(N)N/N=C/c1c(-c2cc([N+](=O)[O-])c(Cl)cc2Cl)nc2n1CCS2`, the GI50 in the assay with Malme-3M was 24.5 µM (inactive); with PC-3, 13.2 µM (inactive); in the assay on HL-60, 5.08 µM (inactive); in the assay with NCI-H522, 17 µM (inactive); in the assay on 786-0, 32.4 µM (inactive); in the assay on RPMI-8226, 7.6 µM (inactive). Besides, the GI50 with HCT-15 was 47 µM; in the assay on MOLT-4 it was 6.79 µM (inactive); in the assay with MDA-MB-231 it was 24.1 µM (inactive); in the assay with SK-MEL-28, 5.16 µM (inactive); in the assay with SNB-19 it was 3.87 µM (inactive); in the assay on Hs-578T, 27.9 µM (inactive). Besides, the GI50 is 5.33 µM (inactive) in the assay on NCI-H23; 27.6 µM (inactive) in the assay with NCI-H460; 27.6 µM (inactive) in the assay with DU-145; 40.9 µM (inactive) in the assay with EKVX; 0.951 µM (active) in the assay with SR; 20.7 µM (inactive) with HOP-92. The GI50 in the assay with LOX IMVI is 6.35 µM (inactive); with OVCAR-8, 26.5 µM (inactive).
`COc1cccc(/C=C/C2=NN(c3cccc(S(=O)(=O)O)c3)C3(C2)SCC(=O)N3c2nc3ccccc3s2)c1` (centres undefined): the GI50 in the assay on Malme-3M is 47 µM (inactive); in the assay with PC-3, 37.9 µM (inactive); in the assay with HL-60 it was 26.7 µM (inactive); in the assay with NCI-H522, 14.7 µM (inactive); in the assay with 786-0, 21 µM (inactive); with RPMI-8226, 22.5 µM (inactive). The GI50 in the assay on HCT-15 was 53.5 µM; with MOLT-4, 28.2 µM (inactive); with MDA-MB-231 it was 36.1 µM (inactive); in the assay with SK-MEL-28, > 100 µM (inactive); in the assay with SNB-19, 52.5 µM (inactive); in the assay with Hs-578T, 32.7 µM (inactive). Further, the GI50 in the assay with NCI-H23 was 86.1 µM (inactive); with NCI-H460, 35.7 µM (inactive); in the assay on DU-145, 30.6 µM (inactive); with EKVX, 69.2 µM (inactive); in the assay on SR, 23.9 µM (inactive); with HOP-92, 94.6 µM (inactive). Moreover, the results for the GI50 in the assay with LOX IMVI and with OVCAR-8 were 21.1 µM (inactive) and 40.7 µM (inactive), respectively.
In the case of `Cc1cc(=O)oc2cc(OS(C)(=O)=O)ccc12`, the GI50 in the assay with Malme-3M, with PC-3, with HL-60, in the assay on NCI-H522, in the assay on 786-0 and in the assay with RPMI-8226 was > 100 µM (inactive) in each case. Also, the GI50 with HCT-15 is more than 100 µM; in the assay with MDA-MB-231, > 100 µM (inactive); in the assay with SK-MEL-28, > 100 µM (inactive); in the assay with SNB-19, > 100 µM (inactive); with Hs-578T, > 100 µM (inactive); in the assay on NCI-H23 it was > 100 µM (inactive). For the same compound, the GI50 with NCI-H460, in the assay on DU-145, with EKVX, with SR, in the assay with HOP-92 and in the assay on LOX IMVI was > 100 µM (inactive) in each case. In the assay with OVCAR-8, the GI50 is > 100 µM (inactive).
With `C#CCCOC1(OC)N=NC(C)(C)O1` (centres undefined), the GI50 in the assay on Malme-3M, in the assay on PC-3, with HL-60, in the assay with NCI-H522, in the assay with 786-0 and in the assay with RPMI-8226 was > 100 µM (inactive) throughout. Also, the GI50 in the assay on HCT-15 is more than 100 µM; in the assay on MOLT-4, > 100 µM (inactive); in the assay on MDA-MB-231, > 100 µM (inactive); in the assay on SK-MEL-28, > 100 µM (inactive); in the assay on SNB-19 it was > 100 µM (inactive); in the assay with Hs-578T, > 100 µM (inactive). In addition, the GI50 in the assay on NCI-H23, in the assay on NCI-H460, in the assay with DU-145, in the assay on EKVX, in the assay with SR and in the assay on HOP-92 was > 100 µM (inactive) throughout. Besides, the GI50 in the assay with LOX IMVI and in the assay on OVCAR-8 was > 100 µM (inactive) in each case.
As to `CC(C)C(OC(=O)c1ccc(NCC2=CC(=O)C=CC2=O)cc1)C(C)C`, the GI50 in the assay on Malme-3M is 8.89 µM (inactive); with PC-3, 8.09 µM (inactive); in the assay with HL-60, 1.25 µM (inactive); in the assay on NCI-H522, 1.22 µM (inactive); in the assay on 786-0, 10.4 µM (inactive); in the assay with RPMI-8226 it was 3.15 µM (inactive). The GI50 in the assay with HCT-15 is 2.97 µM; with MOLT-4 it was 2.01 µM (inactive); in the assay with MDA-MB-231, 7.06 µM (inactive); in the assay with SK-MEL-28, 4.05 µM (inactive); in the assay on SNB-19 it was 18.3 µM (inactive); with Hs-578T, 3.68 µM (inactive). Moreover, the GI50 with NCI-H23 is 5.05 µM (inactive); in the assay on NCI-H460, 14.6 µM (inactive); in the assay on DU-145, 18.4 µM (inactive); with EKVX it was 8.26 µM (inactive); in the assay on SR it was 3.23 µM (inactive); in the assay with HOP-92, 1.79 µM (inactive). Moreover, the GI50 in the assay with LOX IMVI was 5.15 µM (inactive); in the assay with OVCAR-8, 3.03 µM (inactive).
For the compound `Cc1cn([C@@H]2O[C@H](CO)[C@@H](O)[C@@H]2O)c(=O)[nH]c1=O`, the GI50 in the assay on Malme-3M, with PC-3, with HL-60, in the assay on NCI-H522, in the assay on 786-0 and with RPMI-8226 was > 1000 µM (inactive) in each case. The GI50 in the assay with HCT-15 is more than 1000 µM; in the assay on MOLT-4, > 1000 µM (inactive); with MDA-MB-231, > 1000 µM (inactive); in the assay on SK-MEL-28, > 1000 µM (inactive); in the assay with SNB-19, > 1000 µM (inactive); with Hs-578T, > 1000 µM (inactive). The GI50 in the assay with NCI-H23, with NCI-H460, in the assay with DU-145, with EKVX, in the assay with SR and in the assay on HOP-92 was > 1000 µM (inactive) throughout. The GI50 with LOX IMVI and in the assay on OVCAR-8 was > 1000 µM (inactive) in each case.
With `c1ccc(COC2NCCN2Cc2ccccc2)cc1` (centres undefined), the GI50 is > 100 µM (inactive) in the assay on Malme-3M; > 100 µM (inactive) with PC-3; 69 µM (inactive) in the assay with HL-60; > 100 µM (inactive) in the assay on NCI-H522; > 100 µM (inactive) in the assay with 786-0; > 100 µM (inactive) in the assay with RPMI-8226. Further, the GI50 is more than 100 µM with HCT-15; > 100 µM (inactive) in the assay with MOLT-4; > 100 µM (inactive) in the assay with MDA-MB-231; > 100 µM (inactive) in the assay with SK-MEL-28; > 100 µM (inactive) in the assay on SNB-19; 5.64 µM (inactive) in the assay on Hs-578T. For the same compound, the GI50 was > 100 µM (inactive) in the assay with NCI-H23; > 100 µM (inactive) with NCI-H460; > 100 µM (inactive) in the assay with DU-145; 51.2 µM (inactive) with EKVX; > 100 µM (inactive) in the assay on SR; > 100 µM (inactive) with HOP-92. In addition, the GI50 in the assay with LOX IMVI and in the assay with OVCAR-8 was > 100 µM (inactive) in each case.
`CN1C(=O)[C@H](c2c[nH]c3ccccc23)[C@H](c2c[nH]c3ccccc23)C1=O`: the GI50 is 36.5 µM (inactive) with Malme-3M; 24.3 µM (inactive) in the assay on PC-3; 5.13 µM (inactive) in the assay on HL-60; 34.2 µM (inactive) with NCI-H522; > 45.2 µM (inactive) with 786-0; 24.9 µM (inactive) in the assay on RPMI-8226. Besides, the GI50 is 24.8 µM in the assay on HCT-15; 21.6 µM (inactive) with MOLT-4; 4.4 µM (inactive) in the assay with MDA-MB-231; 33.7 µM (inactive) with SK-MEL-28; 41.4 µM (inactive) in the assay on SNB-19; 31.3 µM (inactive) in the assay with Hs-578T. Also, the GI50 in the assay on NCI-H23 was 22.3 µM (inactive); in the assay on NCI-H460 it was 23.9 µM (inactive); with DU-145, 48.3 µM (inactive); with EKVX, 29.4 µM (inactive); in the assay on SR, 22.6 µM (inactive); in the assay with HOP-92, > 35.9 µM (inactive). Also, the GI50 in the assay with LOX IMVI was 17.7 µM (inactive); in the assay on OVCAR-8 it was 31 µM (inactive).
On to `C[n+]1c2ccccc2n2c3ccccc3c(NCCCN3CCOCC3)c(C#N)c21`, for which the GI50 is 2.05 µM (inactive) in the assay on Malme-3M; 1.31 µM (inactive) in the assay with PC-3; 8.13 µM (inactive) with HL-60; 0.652 µM (active) in the assay on NCI-H522; 1.04 µM (active) in the assay on 786-0; 0.726 µM (active) in the assay with RPMI-8226. Also, the GI50 in the assay with HCT-15 is 4.65 µM; in the assay on MOLT-4, 0.498 µM (active); with MDA-MB-231, 0.804 µM (active); in the assay on SK-MEL-28 it was 3.32 µM (inactive); in the assay on SNB-19, 3.08 µM (inactive); with Hs-578T, 1.41 µM (inactive). For the same compound, the GI50 is 1.29 µM (inactive) with NCI-H23; 0.684 µM (active) in the assay on NCI-H460; 2.13 µM (inactive) in the assay with DU-145; 2.9 µM (inactive) with EKVX; 2.81 µM (inactive) in the assay with SR; 62.8 µM (inactive) in the assay on HOP-92. Besides, the figures for the GI50 with LOX IMVI and with OVCAR-8 were 0.839 µM (active) and 0.843 µM (active), respectively.
